Assay results taken from patent EP1781294B1, “COMPOSITION FOR IMPROVED BIOAVAILABILITY AND ENHANCED BRAIN DELIVERY OF 5,5-DIPHENYL BARBITURIC ACID” (priority 2004, dated 2006).
Where two headings read alike, the source gives them in different places.

Tests used:
[1] = Pharmacokinetics of MMMDPB and DPB after oral MMMDPB or NaMMMDPB and intravenous NaMMMDPB; format: in vivo, Beagle dogs
Description: (§1) In accordance with the present invention, pharmacokinetic parameters were calculated using standard non-compartmental methods, as implemented in WinNonlin™ 4.0.1. […] The mean, SD and CV (%) were used to calculate the AUC0-t (µg.h/mL), Cmax (µg/ml) (the maximum observed concentration), Tmax (hours) (the time to reach that peak concentration) and Kel (the elimination rate constant) for each animal and each analyte.
(§2) AUC0-t was calculated using the linear trapezoidal rule, which employs an approximate integration formula. The area of each trapezoid was calculated, and the sum of all the areas of all the trapezoids yielded an estimate of the true area under the curve. (See, Gibaldi et al. Pharmacokinetics. 2nd Ed. Marcel Dekker, Inc., 1982; Yeh et al., A comparison of numerical integrating algorithms by trapezoidal, lagrange, and spline approximations. J. Pharmacokinet Biopharm. 6: 79 (1978), the disclosure of which is herein incorporated by reference.) Cmax and Tmax were then determined for each concentration vs. time profile. Elimination rate constant (Kel) was calculated using regression analyses on the natural log (In) of plasma concentration values (y) versus time (x).
Blood samples were obtained pre-dose and 0.25, 0.5, 1, 2, 3, 4, 6, 9, 12, 15, 18, and 24 hours after dosing. Venous blood (~1 mL) were drawn and collected in lithium heparin (anticoagulant). Blood samples were spun in a refrigerated centrifuge and plasma were stored at -80°C prior to analysis. […] Calibration curves were obtained using a weighted (1/C^2) least squares linear regression analysis of peak area ratio (analyte/internal standard) versus the nominal concentration of the calibration standards. Concentrations were obtained by interpolation from the run defined calibration curve. Regressions and figures were generated by PE Sciex Analyst Version 1.2 software.
Plasma samples were thawed and subjected to solid phase extraction with 2 mL acetonitrile prior to HPLC method with Tandem Mass Spectrometry Detection. Chromatographic conditions were performed as followed: […]

[2] = Pharmacokinetics of DPB after oral DPB or NaDPB and intravenous NaDPB; format: in vivo, Sprague-Dawley rats; settings: 150 mg/kg; for AUC0-t for DPB greater than after oral administration of DPB / Cmax for DPB greater than after oral administration of DPB: versus oral DPB; for AUC at 24 h: rat, in vivo, analyte DPB, read-out: AU0-24
Description: as §1, §2
(§3) We examined the delivery of DPB to the vascular compartment by administrating directly DPB and compared it with the sodium salt of DPB. This study compared the pharmacokinetics of DPB after oral administration of DPB (150 mg/kg) and sodium salt of DPB (150 mg/kg) in rats. Fifty-four rats were administered DPB and sodium salt of DPB by a single oral gavage (n=54). Blood samples were obtained (approximately 0.5 mL each) were collected following each treatment from animal via the jugular vein. Blood samplings from groups of 3 rats/sex/time point were collected at various times after dosing, in order to provide the complete time-points of pre-dose, 0, 0.5, 1, 2, 3, 4, 6, 12, 18, 24, 36 and 48 hours after dosing. Each blood sample was collected into a tube containing lithium heparin and the samples were spun in a refrigerated centrifuge. The resultant plasma was stored at -80°C prior to analysis. DPB was quantified in plasma using HPLC (LLOQ=0.25 µg/mL).
We calculated AUC0-t for DPB at various times (24, 36 and 48 hours) after oral administrations of DPB and sodium salt of DPB. Table 5: AUCs at various times (24,36 and 48 hours) after Oral Administration of DPB and NaDPB in Beagle Dogs (75 mg/kg, n=28)

[3] = as above; format: in vivo, Beagle dogs; settings: 75 mg/kg, versus oral DPB free acid
Description: as §1, §2
We examined the delivery of DPB to the vascular compartment by administrating directly DPB and compared it with the sodium salt of DPB in dogs. […] DPB was quantified in plasma using HPLC (LLOQ=0.25 µg/mL). […]

[4] = Brain concentration of DPB after oral DPB or NaDPB and intravenous NaDPB; format: in vivo, Sprague-Dawley rats; settings: 150 mg/kg
Description: as §3
In this study, we measured the brain concentration of DPB. Brains were collected as soon as possible after euthanasia from each rat. They were stored in a freezer at -80°C prior to determination of DPB brain tissue concentrations. Table 6 summarizes the brain concentrations of DPB after oral administration of DPB and sodium salt of DPB in Sprague-Dawley rats.

[5] = system: maximal electroshock seizure (MES); settings: cited from earlier work
[6] = aqueous solution at pH 7; cited from earlier work
[7] = dog, in vivo, iv, 15 mg/kg, IV infusion, analyte DPB

With `COCN1C(=O)NC(=O)C(c2ccccc2)(c2ccccc2)C1=O` [MMMDPB, monomethoxymethyl-5,5-diphenyl barbituric acid] the AUC(0-t) ([1]; Oral, 30 mg/kg, analyte DPB) was 193.18 µg·h/mL, the Tmax ([1]; dog, in vivo, Oral, 30 mg/kg, analyte DPB) was 9.39 h and the Cmax ([1]; dog, in vivo, Oral, 30 mg/kg, analyte DPB, plasma, n=8) was 13900 ng/mL. The AUC(0-t) ([1]; dog, in vivo, Oral, 30 mg/kg, analyte DPB, read-out: AUC0-t) was 193 µg·h/mL.
`COCN1C(=O)NC(=O)C(c2ccccc2)(c2ccccc2)C1=O` [NaMMMDPB, sodium monomethoxymethyl-5,5-diphenyt barbiturate] gave an AUC(0-t) ([1]; Oral, 30 mg/kg, analyte DPB) of 135.10 µg·h/mL, an AUC(0-t) ([1]; dog, in vivo, iv, 15 mg/kg, IV infusion, 15 mg/kg, analyte DPB, read-out: AUC0-t) of 59.4 µg·h/mL and a Cmax [1, 7] of 8600 ng/mL. The Tmax [1, 7] was 3.13 h, the AUC(0-t) ([1]; dog, in vivo, po, 30 mg/kg, Oral, 30 mg/kg, analyte DPB, read-out: AUC0-t) was 135 µg·h/mL and the AUC(0-t) ([1]; dog, in vivo, po, 30 mg/kg, Oral, 30 mg/kg, analyte MMMDPB, read-out: AUC0-t) was 29.4 µg·h/mL. The Tmax ([1]; dog, in vivo, po, 30 mg/kg, analyte DPB) was 7.28 h, the Cmax ([1]; dog, in vivo, po, 30 mg/kg, analyte DPB, plasma, n=8) was 11600 ng/mL and the bioavailability ([1]; dog, in vivo, Oral, 30 mg/kg, analyte DPB, read-out: F (absolute bioavailability)) was 315%.
In the case of `O=C1NC(=O)C(c2ccccc2)(c2ccccc2)C(=O)N1.[Na]` [NaDPB, sodium 5,5-diphenyl barbiturate], the “AUC0-t for DPB greater than after oral administration of DPB” value (from here on “AUC0-t for DPB greater than”) ([2]; Oral, female) is reported as ~ 2 fold, the “Cmax for DPB greater than after oral administration of DPB” value (from here on “Cmax for DPB greater than”) ([2]; Oral, female) is reported as ~ 1.5 fold and the “AUC0-t for DPB greater than” value ([2]; Oral, male) is reported as ~ 4.5 fold. The “Cmax for DPB greater than” value ([2]; Oral, male) was ~ 2.5 fold, the AUC at 24 h ([2]; iv, IV infusion, female) was 3400 µg·h/mL and the AUC at 24 h ([2]; iv, IV infusion, male) was 3160 µg·h/mL. The AUC at 24 h ([2]; po, Oral, female) was 1990 µg·h/mL, the AUC at 24 h ([2]; po, Oral, male) was 1710 µg·h/mL and the “AUC0-t for DPB greater than” value [3] was ~ 4 fold. For the same molecule, the “Cmax for DPB greater than” value [3] was ~ 3 fold.
For `O=C1NC(=O)C(c2ccccc2)(c2ccccc2)C(=O)N1` [DPB, 5,5-diphenyl barbituric acid], the AUC at 24 h ([2]; po, Oral, female) was 1210 µg·h/mL, the AUC at 24 h ([2]; po, Oral, male) was 623 µg·h/mL and the “Mean Brain Concentrations of DPB” value ([4]; female, 24 hr) was 7.04 µg/g. The “Mean Brain Concentrations of DPB” value ([4]; female, 36 hr) was 6.84 µg/g, the “Mean Brain Concentrations of DPB” value ([4]; female, 48 hr) was 5.24 µg/g and the “Mean Brain Concentrations of DPB” value ([4]; male, 24 hr) was 3.09 µg/g. The “Mean Brain Concentrations of DPB” value ([4]; male, 36 hr) was 3.36 µg/g, the “Mean Brain Concentrations of DPB” value ([4]; male, 48 hr) was “BQL” and the protection ([5]; brain concentrations in excess of 10 µg/ml) was no less than 50%. The protection ([5]; brain concentrations of DPB less than 1 µg/ml) was no more than 20% and the “Water solubility, less soluble as compared to phenobarbital” value [6] was 1/100.
